The values below come from US20260176253A1 (priority 2021, published 2026).

pEC50, pIC50: −log10 of the molar value.

In assay [1] the target is human recombinant 5-HT2Cedited receptor (Homo sapiens, UniProt P28335, I156V/I160V/N158S). The assay is described as follows: cell-based.
For assay [2], the target named is 5-HT2Cedited (accession number AAF35842.1) (Homo sapiens, UniProt P28335, I156V/I160V/N158S). The assay is described as follows: biochemical. It is filed as binding.
Chain of 5-HT2Cedited (accession number AAF35842.1) (P28335 whole entry I156V/N158S/I160V, looked up): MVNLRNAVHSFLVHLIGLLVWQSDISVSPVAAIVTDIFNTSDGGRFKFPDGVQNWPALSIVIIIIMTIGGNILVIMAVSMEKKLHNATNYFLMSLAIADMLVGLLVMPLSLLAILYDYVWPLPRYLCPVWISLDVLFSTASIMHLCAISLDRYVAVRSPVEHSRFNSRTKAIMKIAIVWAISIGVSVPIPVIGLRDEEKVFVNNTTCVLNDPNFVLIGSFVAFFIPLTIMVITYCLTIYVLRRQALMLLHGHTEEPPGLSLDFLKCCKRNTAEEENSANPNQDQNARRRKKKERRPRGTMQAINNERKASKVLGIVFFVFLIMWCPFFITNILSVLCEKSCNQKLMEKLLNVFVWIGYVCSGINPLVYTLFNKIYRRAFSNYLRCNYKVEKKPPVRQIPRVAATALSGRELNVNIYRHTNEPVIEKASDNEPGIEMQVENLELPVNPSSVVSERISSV

Chain of human recombinant 5-HT2Cedited receptor (P28335 33-458 I156V/N158S/I160V limits assumed): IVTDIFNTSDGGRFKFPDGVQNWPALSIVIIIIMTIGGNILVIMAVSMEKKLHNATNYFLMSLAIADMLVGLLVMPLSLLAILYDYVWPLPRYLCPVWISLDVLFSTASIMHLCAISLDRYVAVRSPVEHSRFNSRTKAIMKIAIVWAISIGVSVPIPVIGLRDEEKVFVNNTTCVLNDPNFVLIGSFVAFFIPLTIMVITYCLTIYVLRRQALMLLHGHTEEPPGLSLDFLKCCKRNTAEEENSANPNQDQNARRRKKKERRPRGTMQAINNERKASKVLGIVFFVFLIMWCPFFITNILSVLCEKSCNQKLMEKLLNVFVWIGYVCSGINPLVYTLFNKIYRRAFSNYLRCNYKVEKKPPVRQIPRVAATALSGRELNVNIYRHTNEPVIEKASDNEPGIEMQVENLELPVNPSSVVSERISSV

As for `COc1ccc2c3c([nH]c2c1)CCN1CCCC1C3` (stereo not drawn) [Compound 1, 9-methoxy-1,2,3,5,6,7,12,12a-octahydropyrrolo[1′,2′:1,7]azepino[4,5-b]indole], the pEC50 in assay [1] is below 5.00. Moreover, in assay [2], the pIC50 was 5.00 to 6.00.

Turning to `COc1ccc2c3c([nH]c2c1)CC1CCCN1CC3` (stereo not drawn) [Compound 2, 9-methoxy-1,2,3,5,6,11,12,12a-octahydropyrrolo[1′,2′:1,2]azepino[4,5-b]indole], the pEC50 in assay [1] was 5.00 to 6.00. Moreover, the pIC50 in assay [2] is 5.00 to 6.00.

In the case of `Cn1c2c(c3ccccc31)CCN1CCCC1C2` (stereo not drawn) [Compound 3, 11-methyl-1,2,3,5,6,11,12,12a-octahydropyrrolo[1′,2′:1,2]azepino[4,5-b]indole], in assay [1], the pEC50 was 6.00 to 7.00. Besides, the pIC50 in assay [2] is 6.00 to 7.00.

On to `c1ccc2c3c([nH]c2c1)CC1CCCN1CC3` (stereo not drawn) [Compound 4, 1,2,3,5,6,11,12,12a-octahydropyrrolo[1′,2′;1,2]azepino[4,5-b]indole], for which the negative-log EC50 (pEC50) in assay [1] is 6.00 to 7.00. The compound further had a negative-log IC50 (pIC50) in assay [2] of 6.00 to 7.00.

Regarding `COc1cccc2[nH]c3c(c12)CC1CCCN1CC3` (stereo not drawn) [Compound 5, 11-methoxy-1,2,3,5,6,7,12,12a-octahydropyrrolo[1′,2′:1,7]azepino[4,5-b]indole], the pEC50 in assay [1] was 5.00 to 6.00. The pIC50 in assay [2] was 6.00 to 7.00.

Turning to `Cn1c2c(c3ccccc31)CC1CCCN1CC2` (stereo not drawn) [Compound 6, 7-methyl-1,2,3,5,6,7,12,12a-octahydropyrrolo[1′,2′:1,7]azepino[4,5-b]indole], the negative logarithm of the EC50 (pEC50) in assay [1] is 6.00 to 7.00. This compound gave a pIC50 in assay [2] of 6.00 to 7.00.

As to `c1ccc2c3c([nH]c2c1)CCN1CCCC1C3` (stereo not drawn) [Compound 7, 1,2,3,5,6,7,12,12a-octahydropyrrolo[1′,2′:1,7]azepino[4,5-b]indole], the pEC50 in assay [1] was 6.00 to 7.00. In assay [2], this compound gave a negative-log IC50 (pIC50) of 6.00 to 7.00.

With `FC(F)(F)c1ccc2c3c([nH]c2c1)CC1CCCN1CC3` (stereo not drawn) [Compound 12, 9-(trifluoromethyl)-1,2,3,5,6,11,12,12a-octahydropyrrolo[1′,2′:1,2]azepino[4,5-b]indole], the pEC50 in assay [1] was below 5.00. Further, the pIC50 in assay [2] was 5.00 to 6.00.

For the compound `FC(F)(F)Oc1ccc2c3c([nH]c2c1)CC1CCCN1CC3` (stereo not drawn) [Compound 13, 9-(trifluoromethoxy)-1,2,3,5,6,11,12,12a-octahydropyrrolo[1′,2′;1,2]azepino[4,5-b]indole], the pEC50 in assay [1] is below 5.00. The compound further showed a negative-log IC50 (pIC50) in assay [2] of 5.00 to 6.00.

In the case of `COc1ccc2c3c([nH]c2c1)C[C@@H]1CCCN1CC3` [Compound 17, (S)-9-methoxy-1,2,3,5,6,11,12,12a-octahydropyrrolo[1′,2′:1,2]azepino[4,5-b]indole], in assay [1], the pEC50 was below 5.00. In addition, the pIC50 in assay [2] was 5.00 to 6.00.

As for `COc1ccc2c3c([nH]c2c1)C[C@H]1CCCN1CC3` [Compound 18, (R)-9-methoxy-1,2,3,5,6,11,12,12a-octahydropyrrolo[1′,2′:1,2]azepino[4,5-b]indole], the pEC50 in assay [1] was below 5.00. Besides, in assay [2], the pIC50 is 5.00 to 6.00.

For the compound `c1ccc2c3c([nH]c2c1)C[C@@H]1CCCN1CC3` [Compound 19, (S)-1,2,3,5,6,11,12,12a-octahydropyrrolo[1′,2′:1,2]azepino[4,5-b]indole], in assay [1], the pEC50 is 6.00 to 7.00. The pIC50 in assay [2] was 6.00 to 7.00.

Consider `c1ccc2c3c([nH]c2c1)C[C@H]1CCCN1CC3` [Compound 20, (R)-1,2,3,5,6,11,12,12a-octahydropyrrolo[1′,2′:1,2]azepino[4,5-b]indole], for which the pEC50 in assay [1] is 7.00 to 8.00. In assay [2], this compound had a pIC50 of 6.00 to 7.00.

As to `FC(F)(F)c1cccc2[nH]c3c(c12)CCN1CCCC1C3` (stereo not drawn) [Compound 21, 7-(trifluoromethyl)-1,2,3,5,6,11,12,12a-octahydropyrrolo[1′,2′:1,2]azepino[4,5-b]indole], the pEC50 in assay [1] is 6.00 to 7.00. In assay [2], this compound showed a pIC50 of 6.00 to 7.00.

As to `c1ccc2c3c([nH]c2c1)CCN1CCC[C@@H]1C3` [Compound 22, (R)-1,2,3,5,6,7,12,12a-octahydropyrrolo[1′,2′:1,7]azepino[4,5-b]indole], the pEC50 in assay [1] is 6.00 to 7.00. The pIC50 in assay [2] was 6.00 to 7.00.

For the compound `c1ccc2c3c([nH]c2c1)CCN1CCC[C@H]1C3` [Compound 23, (S)-1,2,3,5,6,7,12,12a-octahydropyrrolo[1′,2′:1,7]azepino[4,5-b]indole], in assay [1], the pEC50 is 6.00 to 7.00. In assay [2], this compound gave a pIC50 of 6.00 to 7.00.

Take `COc1ccc2c3c([nH]c2c1)CCN1CCC[C@@H]1C3` [Compound 24, (R)-9-methoxy-1,2,3,5,6,7,12,12a-octahydropyrrolo[1′,2′:1,7]azepino[4,5-b]indole]: the pEC50 in assay [1] is 5.00 to 6.00. In assay [2], this compound showed a negative-log IC50 (pIC50) of 5.00 to 6.00.

Turning to `COc1ccc2c3c([nH]c2c1)CCN1CCC[C@H]1C3` [Compound 25, (S)-9-methoxy-1,2,3,5,6,7,12,12a-octahydropyrrolo[1′,2′:1,7]azepino[4,5-b]indole], in assay [1], the negative-log EC50 (pEC50) is 5.00 to 6.00. The compound also showed a pIC50 in assay [2] of 5.00 to 6.00.

For the compound `COc1cccc2[nH]c3c(c12)C[C@H]1CCCN1CC3` [Compound 26, (R)-11-methoxy-1,2,3,5,6,7,12,12a-octahydropyrrolo[1′,2′:1,7]azepino[4,5-b]indole], the pEC50 in assay [1] is 7.00 to 8.00. This compound showed a pIC50 in assay [2] of 7.00 to 8.00.

In the case of `COc1cccc2[nH]c3c(c12)C[C@@H]1CCCN1CC3` [Compound 27, (S)-11-methoxy-1,2,3,5,6,7,12,12a-octahydropyrrolo[1′,2′:1,7]azepino[4,5-b]indole], the pEC50 in assay [1] is 6.00 to 7.00. This compound also showed a pIC50 in assay [2] of 6.00 to 7.00.

For `FC(F)(F)c1cccc2[nH]c3c(c12)CC1CCCN1CC3` (stereo not drawn) [Compound 28, 11-(trifluoromethyl)-1,2,3,5,6,7,12,12a-octahydropyrrolo[1′,2′:1,7]azepino[4,5-b]indole], in assay [1], the pEC50 was 6.00 to 7.00. The compound further gave a pIC50 in assay [2] of 7.00 to 8.00.

One may read the pEC50 as the negative decadic logarithm of the EC50, by convention in mol/L. As usually defined, the pIC50 is the IC50 on a negative log10 scale, so that one unit is a factor of ten.
